Results on two compounds are retold here after patent EP1434624B1, “2-AMINO-6-(2,4,5-SUBSTITUTED-PHENYL)-PYRIDINES FOR USE AS NITRIC OXIDE SYNTHASE INHIBITORS” (Pfizer Products Inc., priority 2001, dated 2003).

This experiment has as its target neuronal NOS (Homo sapiens, UniProt P29475). In words: Inhibition of NO synthase activity by conversion of [3H]arginine to [3H]citrulline (crude enzyme lysate). It counts as biochemical.

pIC50: −log10 of the molar value. Read-outs that look alike come from different tables or passages of the source.

Chain of neuronal NOS (P29475 whole entry): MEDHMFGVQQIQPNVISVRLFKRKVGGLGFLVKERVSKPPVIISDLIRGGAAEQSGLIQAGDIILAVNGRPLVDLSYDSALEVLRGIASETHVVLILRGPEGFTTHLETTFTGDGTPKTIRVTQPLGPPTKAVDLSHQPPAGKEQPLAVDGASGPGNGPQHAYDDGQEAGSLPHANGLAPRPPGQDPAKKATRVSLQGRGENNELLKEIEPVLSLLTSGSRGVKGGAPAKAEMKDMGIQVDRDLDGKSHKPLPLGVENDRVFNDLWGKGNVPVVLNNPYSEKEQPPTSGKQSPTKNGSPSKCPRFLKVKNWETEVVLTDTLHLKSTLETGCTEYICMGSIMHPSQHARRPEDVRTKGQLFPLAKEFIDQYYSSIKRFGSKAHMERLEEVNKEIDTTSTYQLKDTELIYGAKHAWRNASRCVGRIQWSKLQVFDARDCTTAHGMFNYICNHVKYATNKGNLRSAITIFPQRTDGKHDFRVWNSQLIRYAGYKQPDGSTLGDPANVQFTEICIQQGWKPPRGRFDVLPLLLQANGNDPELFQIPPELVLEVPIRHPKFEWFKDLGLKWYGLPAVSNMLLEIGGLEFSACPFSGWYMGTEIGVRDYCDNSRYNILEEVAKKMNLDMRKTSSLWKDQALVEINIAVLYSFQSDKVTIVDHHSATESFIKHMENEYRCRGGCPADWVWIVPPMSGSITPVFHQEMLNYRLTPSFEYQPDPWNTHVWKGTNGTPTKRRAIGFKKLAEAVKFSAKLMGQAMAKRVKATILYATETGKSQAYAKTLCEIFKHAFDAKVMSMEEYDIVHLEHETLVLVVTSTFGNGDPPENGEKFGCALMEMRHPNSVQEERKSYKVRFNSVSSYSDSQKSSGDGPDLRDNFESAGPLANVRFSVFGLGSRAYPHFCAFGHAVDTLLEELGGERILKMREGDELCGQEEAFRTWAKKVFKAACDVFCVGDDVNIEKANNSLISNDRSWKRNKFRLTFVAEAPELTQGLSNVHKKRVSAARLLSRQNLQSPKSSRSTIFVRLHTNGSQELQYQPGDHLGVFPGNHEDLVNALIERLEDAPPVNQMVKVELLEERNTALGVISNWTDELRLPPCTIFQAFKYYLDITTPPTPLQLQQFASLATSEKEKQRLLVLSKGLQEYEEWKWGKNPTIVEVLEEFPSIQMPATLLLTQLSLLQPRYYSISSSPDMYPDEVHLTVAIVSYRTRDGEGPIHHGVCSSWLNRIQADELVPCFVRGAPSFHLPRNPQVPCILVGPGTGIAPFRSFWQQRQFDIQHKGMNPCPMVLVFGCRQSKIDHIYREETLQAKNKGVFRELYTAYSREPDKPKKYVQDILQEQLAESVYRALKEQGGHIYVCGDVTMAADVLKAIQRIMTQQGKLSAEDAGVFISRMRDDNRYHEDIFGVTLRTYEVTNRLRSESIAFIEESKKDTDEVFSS
Protocol: The ability of the compounds of the present invention to inhibit neuronal NOS may be determined using the procedure described by Bredt and Snyder in Proc. Natl. Acad. Sci. U.S.A., 87, 682-685 (1990).
As indicated above, inhibition of NO synthase activity may be determined by conversion of [^3H]arginine to [^3H]citrulline as described by Bredt and Snyder in Proc. Natl. Acad. Sci. U.S.A., 87, 682-685 (1990), but with slight modification. Specifically, 10 uL of crude enzyme lysate and 10 uL of 350 nM [^3H]arginine are added to 100 uL of buffer containing 10 mM Hepes, 0.32 M sucrose, 0.75 mM NADPH, 0.1 mM EDTA, 0.63 mM CaCl2, 1 mM dithiothreitol, 30 nM calmodulin(CaM), 2 uM Flavin Adenin dinucleotie (FAD), 2 uM Flavin mononucleotide (FMN), 3 uM tetrahydrobiopterin (H4B) and trace bovine serum albumin in 96-well plate format. After incubation for 50 minutes at 30°C, assays are terminated by application to 75 uL BioRex-70 resin (H^+ form) and eluted with 90 uL of water. [^3H]citrulline may be quantified by liquid scintillation spectroscopy of the total flow-through.

Usually pIC50 stands for the negative decadic logarithm of the IC50, by convention in mol/L. As for `CCc1cc(-c2cccc(N)n2)c(OC)cc1OC1CNC1` [Example 1, 6-[4-(3-azetidinoxy)-5-ethyl-2-methoxy-phenyl]-pyridin-2-ylamine], the pIC50 (crude enzyme lysate, [3H]arginine to [3H]citrulline, 50 minutes at 30°C, read-out: IC50 for inhibition of neuronal NOS) is 7.44. In turn, `CCc1cc(-c2cccc(N)n2)c(OC)cc1CNC` [Example 3, 6-[4-(N-methylaminomethyl)-5-ethyl-2-methoxy-phenyl]-pyridin-2-ylamine] had a pIC50 of 7.52.
